According to patent US20090062397A1, “COMPOUNDS AND METHODS FOR ENHANCING SOLUBILITY OF FLORFENICOL AND STRUCTURALLY-RELATED ANTIBIOTICS USING CYCLODEXTRINS” (Schering-Plough Animal Health Corporation, priority 2007, published 2009):
Converted amounts (≈) assume the structure as drawn.

Experiments:
Assay type in all cases: physicochemical
[1] = Experimental water solubility of FFC (HPLC solubility study); conditions: thermodynamic from solid
Procedure: (§1) Phase solubility analysis is one of the methods used to determine a drug:CD binding constant and its consequences on the drug solubility have been extensively described in the literature by Higuchi and Connors. In such experiments, the solubility of a substance (S) is monitored with increases in the concentration of a ligand (L) (cyclodextrin in this case). The experiments are conducted in a series of tubes or vials containing the same volume of ligand solutions with increasing concentrations, except that one tube contains the solvent only. To each tube is added a known amount of the substance or drug, and the samples are equilibrated at constant temperature. The solution phase is then analyzed for the total substance concentration. If a soluble complex forms, the substance concentration should vary with increasing ligand concentration. The solubility behavior can be determined using a phase diagram by plotting the total substance concentration versus the total ligand concentration.
(§2) Florfenicol solubility in mixed solvents, such as water/PEG-300, and florfenicol complexes with beta cyclodextrin were evaluated by solubility studies using High Performance Liquid Chromatography (HPLC). The HPLC system consisted of a Waters Alliance Separation Module equipped with a Waters 2996 Photodiode Array Detector interfaced with Millennium Chromatography manager data software. The HPLC mobile phase consisted of acetonitrile and a 0.1% phosphoric acid aqueous solution (30:70 v/v). A Phenomenx®, Luna C8 5 micron column was used. The flow rate was 1.0 mL/min and the detection wavelength was 260 nm. Binding constants were calculated using the Higuchi Connors method from solubility study plots. The solubility of florfenicol in aqueous CD/PEG-300 systems was also investigated with the same technique.
(§3) In a first set of experiments, phase solubility studies were conducted for FFC in natural and modified cyclodextrins. The results of these studies are reported in Tables I, II, III, IV and V below, and the phase solubility diagrams are reported in FIGS. 5, 6, 7 and 8.

[2] = Phase solubility study of FFC in Beta-CD (Higuchi Connors)
Procedure: as §1, §2, §3

[3] = Phase solubility study of FFC in Gamma-CD (Higuchi Connors)
Procedure: as §1, §2, §3

[4] = Solubility of FFC in aqueous Beta-CD/PEG-300 systems; conditions: for solubility: aqueous beta-cyclodextrin/PEG-300 system, aqueous with cosolvent or surfactant or cyclodextrin, thermodynamic from solid
Procedure: as §2
In a second set of experiments, the effects of different percentages of PEG-300 when used as a co-solvent were investigated in a FFC-cyclodextrin complex system.
The results obtained for the FEC-CD complex in the presence of different percentages of PEG-300 and different molar concentrations of cyclodextrin are reported in Tables VI and VII below.

[5] = Phase solubility study of FFC in HP-Beta-CD (Higuchi Connors)
Procedure: as §1, §2, §3

[6] = Phase solubility study of FFC in Captisol (Higuchi Connors)
Procedure: as §1, §2, §3

- solubility ([1]; Standard 1): 1910 µg/mL (≈ 5.33 mM)
- solubility ([1]; Standard 2): 1900 µg/mL (≈ 5.3 mM)
- solubility ([1]; Standard 3): 1950 µg/mL (≈ 5.44 mM)
- Average FFC ([2]; Beta-CD 0.006 M): 4.03 mg/mL
- FFC ([2]; Beta-CD 0.006 M): 10.45 µM
- Average FFC ([2]; Beta-CD 0.01 M): 5.91 mg/mL
- FFC ([2]; Beta-CD 0.01 M): 15.3 µM
- Average FFC ([2]; Beta-CD 0.02 M): 9.79 mg/mL
- FFC ([2]; Beta-CD 0.02 M): 25.4 µM
- Average FFC ([2]; Beta-CD 0.05 M): 15.59 mg/mL
- FFC ([2]; Beta-CD 0.05 M): 40.4 µM
- calculated binding constant for FFC:CD complex ([2]; Beta-CD, Higuchi Connors method): 1429.57 M⁻¹
- Average FFC ([3]; Gamma-CD 0.007 M): 2.51 mg/mL
- Average FFC ([3]; Gamma-CD 0.014 M): 3.70 mg/mL
- Average FFC ([3]; Gamma-CD 0.03 M): 5.24 mg/mL
- Average FFC ([3]; Gamma-CD 0.06 M): 8.20 mg/mL
- Average FFC ([3]; Gamma-CD 0.11 M): 10.77 mg/mL
- calculated binding constant for FFC:Gamma-CD Complex ([3]; Gamma-CD, Higuchi Connors method): 612.43 M⁻¹
- solubility of FFC (change) ([4]; PEG-300 used as co-solvent for a FFC:cyclodextrin complex): greatly increased
- solubility ([4]; 10 mM beta/3% PEG-300): 7510 µg/mL (≈ 21 mM)
- solubility ([4]; 10 mM beta/10% PEG-300): 6310 µg/mL (≈ 17.6 mM)
- solubility ([4]; 10 mM beta/50% PEG-300): 12300 µg/mL (≈ 34.3 mM)
- solubility ([4]; 50 mM beta/20% PEG-300): 10600 µg/mL (≈ 29.5 mM)
- solubility ([4]; 50 mM beta/30% PEG-300): 14400 µg/mL (≈ 40.1 mM)
- solubility ([4]; 50 mM beta/50% PEG-300): 15500 µg/mL (≈ 43.3 mM)
- Average FFC ([5]; HP-Beta-CD 0.006 M): 3.72 mg/mL
- Average FFC ([5]; HP-Beta-CD 0.012 M): 4.88 mg/mL
- Average FFC ([5]; HP-Beta-CD 0.02 M): 7.00 mg/mL
- Average FFC ([5]; HP-Beta-CD 0.05 M): 9.76 mg/mL
- Average FFC ([5]; HP-Beta-CD 0.09 M): 17.43 mg/mL
- calculated binding constant for FFC:HP-CD complex ([5]; HP-Beta-CD, Higuchi Connors method): 816.652 M⁻¹
- Average FFC ([6]; Captisol 0.006 M): 4.92 mg/mL
- FFC ([6]; Captisol 0.006 M): 9.28 µM
- Average FFC ([6]; Captisol 0.013 M): 5.11 mg/mL
- FFC ([6]; Captisol 0.013 M): 13.2 µM
- Average FFC ([6]; Captisol 0.03 M): 7.98 mg/mL
- Average FFC ([6]; Captisol 0.05 M): 13.17 mg/mL
- FFC ([6]; Captisol 0.05 M): 34.1 µM
- Average FFC ([6]; Captisol 0.10 M): 19.18 mg/mL
- FFC ([6]; Captisol 0.10 M): 49.7 µM
- calculated binding constant for FFC:Captisol complex ([6]; Captisol, Higuchi Connors method): 1020.92 M⁻¹
Compound: CS(=O)(=O)c1ccc([C@@H](O)[C@@H](CF)NC(=O)C(Cl)Cl)cc1 (relative stereo) [FFC, [R-(R*,S*)]2,2-Dichloro-N-[1-(fluoromethyl)-2-hydroxy-2-[4-(methylsulfonyl)phenyl]-ethyl]acetamide]
